Test results published in ChEMBL document CHEMBL4602628, “Design, synthesis, and enzymatic characterization of quinazoline-based CYP1A2 inhibitors” (Bioorg Med Chem Lett, 2020).

Target: T1, Cytochrome P450 1A2 (Homo sapiens, UniProt P05177)
T1 sequence (P05177 whole entry): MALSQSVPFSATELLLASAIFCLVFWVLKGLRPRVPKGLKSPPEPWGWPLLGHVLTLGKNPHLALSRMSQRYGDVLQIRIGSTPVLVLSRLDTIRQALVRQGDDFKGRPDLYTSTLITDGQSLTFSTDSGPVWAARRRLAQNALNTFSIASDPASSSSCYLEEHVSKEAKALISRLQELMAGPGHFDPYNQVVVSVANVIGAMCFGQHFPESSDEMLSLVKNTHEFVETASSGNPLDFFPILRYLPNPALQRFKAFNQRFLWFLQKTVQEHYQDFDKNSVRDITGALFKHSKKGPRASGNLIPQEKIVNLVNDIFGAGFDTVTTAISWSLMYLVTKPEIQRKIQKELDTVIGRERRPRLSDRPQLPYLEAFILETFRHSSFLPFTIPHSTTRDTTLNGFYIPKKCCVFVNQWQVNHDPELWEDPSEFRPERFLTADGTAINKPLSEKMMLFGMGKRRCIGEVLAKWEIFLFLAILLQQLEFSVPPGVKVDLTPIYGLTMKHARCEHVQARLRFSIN
Experiment: Inhibition of recombinant human CYP1A2 using luciferin-ME as substrate preincubated for 10 mins followed by NADPH addition and measured after 10 to 30 mins by P450-Glo assay

| IC50 [µM] | Compound |
| --- | --- |
| 4.2 | CN(C)c1ccc(-c2ncc3ccccc3n2)cc1 |
| 1.2 | O=[N+]([O-])c1cccc(-c2ncc3ccccc3n2)c1 |
| 0.96 | c1ccc2nc(-c3ccnc4ccccc34)ncc2c1 |
